In paper PMC10731806, “Characterization of an iPSC-based barrier model for blood-brain barrier investigations using the SBAD0201 stem cell line” (Fluids and Barriers of the CNS, 2023):

Columns and labels:
GLUT1 = conditions: cited from earlier work
GLUT-1 = target: T1, GLUT-1 (Homo sapiens, UniProt P11166); assay: Apical-to-basolateral transport of GLUT-1 substrates with and without GLUT-1 inhibitors; assay type: cell-based; conditions: A-B, glucose-free HBSS, one hour; for effect on apparent permeability of 6-NBDG: 6-NBDG 100 µM; for effect on apparent permeability of [^3H]-glucose: [3H]-glucose 20 nM
T1 construct: endogenous in cells; host or cells: SBAD0201 hiPSC-derived brain capillary endothelial-like cells (BCECs)
T1 sequence (P11166 1-492): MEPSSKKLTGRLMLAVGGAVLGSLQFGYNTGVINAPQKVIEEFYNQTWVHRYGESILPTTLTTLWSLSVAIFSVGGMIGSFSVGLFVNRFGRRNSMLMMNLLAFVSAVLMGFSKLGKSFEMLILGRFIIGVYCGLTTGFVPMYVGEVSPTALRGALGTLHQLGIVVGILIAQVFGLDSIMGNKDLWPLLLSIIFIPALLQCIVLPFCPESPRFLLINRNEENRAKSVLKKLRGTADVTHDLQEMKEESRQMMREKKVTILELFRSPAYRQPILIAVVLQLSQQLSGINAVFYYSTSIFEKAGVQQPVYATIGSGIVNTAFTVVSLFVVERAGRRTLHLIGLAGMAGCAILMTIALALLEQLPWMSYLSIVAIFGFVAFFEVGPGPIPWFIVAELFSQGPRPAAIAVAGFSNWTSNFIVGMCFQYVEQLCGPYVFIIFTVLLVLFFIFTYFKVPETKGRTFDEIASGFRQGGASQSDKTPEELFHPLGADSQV
Description: (§1) HBSS without glucose was used for transport assays involving [^3H]-glucose and 6-NBDG, whereas HBSS^+ was used for [^3H]-L-leucine. […] The function of GLUT-1 and LAT-1 were evaluated by co-application of the GLUT-1 inhibitors BAY876 (1 and 10 μM) and phloretin (100 μM) and the LAT-1 inhibitors JPH203 (10 μM) and BCH (100 μM). The inhibitors were added to the transport buffer in both chambers 15 min before the addition of the substrates.

LAT-1 = target: T2, LAT-1 (Homo sapiens, UniProt Q01650); assay: Apical-to-basolateral transport of [3H]-L-leucine with and without LAT-1 inhibitors; assay type: cell-based; conditions: [3H]-L-leucine 9.3 nM, A-B, HBSS+, one hour
T2 construct: endogenous in cells; host or cells: SBAD0201 hiPSC-derived brain capillary endothelial-like cells (BCECs)
Description: as §1

P-gp = assay: Bidirectional transport and uptake of P-gp substrates with and without zosuquidar; conditions: for vectorial transport (bidirectional): EC-/- medium

T2 sequence (Q01650 whole entry): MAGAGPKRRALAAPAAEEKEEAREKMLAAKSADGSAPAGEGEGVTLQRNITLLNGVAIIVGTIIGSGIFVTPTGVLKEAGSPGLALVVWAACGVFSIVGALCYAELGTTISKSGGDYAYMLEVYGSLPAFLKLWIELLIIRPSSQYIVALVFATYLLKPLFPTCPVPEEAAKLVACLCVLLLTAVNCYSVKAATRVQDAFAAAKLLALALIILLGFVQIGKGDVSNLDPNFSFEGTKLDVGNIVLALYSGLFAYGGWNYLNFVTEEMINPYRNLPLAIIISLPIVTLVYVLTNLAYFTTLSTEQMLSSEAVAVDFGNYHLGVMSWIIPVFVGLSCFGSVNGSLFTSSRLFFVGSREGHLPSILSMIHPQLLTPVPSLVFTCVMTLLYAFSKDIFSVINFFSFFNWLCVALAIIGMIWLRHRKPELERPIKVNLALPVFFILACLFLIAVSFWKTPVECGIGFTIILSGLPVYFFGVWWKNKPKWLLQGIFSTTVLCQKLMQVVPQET
T2 sequence (P08195 102-630 partner): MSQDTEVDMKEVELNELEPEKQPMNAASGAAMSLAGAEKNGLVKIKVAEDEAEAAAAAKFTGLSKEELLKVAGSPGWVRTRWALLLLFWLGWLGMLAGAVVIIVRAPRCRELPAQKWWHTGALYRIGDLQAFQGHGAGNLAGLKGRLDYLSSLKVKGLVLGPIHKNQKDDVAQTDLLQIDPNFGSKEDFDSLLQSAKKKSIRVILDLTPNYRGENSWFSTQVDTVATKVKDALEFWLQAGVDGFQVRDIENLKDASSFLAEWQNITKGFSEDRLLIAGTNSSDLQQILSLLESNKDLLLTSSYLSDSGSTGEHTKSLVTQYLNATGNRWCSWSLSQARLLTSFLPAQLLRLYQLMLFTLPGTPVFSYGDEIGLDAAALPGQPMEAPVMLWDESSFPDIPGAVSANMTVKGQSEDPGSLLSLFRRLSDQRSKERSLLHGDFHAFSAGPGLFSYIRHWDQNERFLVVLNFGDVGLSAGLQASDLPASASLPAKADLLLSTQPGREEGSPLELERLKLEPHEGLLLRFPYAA

## Cc1c(NC(=O)c2cc(C(N)=O)nc3cc(F)ccc23)c(C(F)(F)F)nn1Cc1ccc(C#N)cc1 [BAY876]
GLUT1
  selectivity for GLUT1 relative to GLUT2, GLUT3, GLUT4: at least 130 fold
GLUT-1; 10 µM BAY876
  effect on apparent permeability of 6-NBDG: sensitive to the addition
  effect on apparent permeability of [^3H]-glucose: sensitive to the addition

## Nc1cc(COc2c(Cl)cc(C[C@H](N)C(=O)O)cc2Cl)c2oc(-c3ccccc3)nc2c1 [JPH203]
LAT-1; JPH203 10 µM
  effect on transport of [3H]-L-leucine: significantly decreased

## NC1(C(=O)O)CC2CCC1C2 (centres unmarked) [BCH]
LAT-1; BCH 100 µM
  effect on transport of [3H]-L-leucine: significantly decreased

## C[C@H]1O[C@@H](O[C@H]2[C@@H](O)C[C@H](O[C@H]3[C@@H](O)C[C@H](O[C@H]4CC[C@@]5(C)[C@H](CC[C@@H]6[C@@H]5C[C@@H](O)[C@]5(C)[C@@H](C7=CC(=O)OC7)CC[C@]65O)C4)O[C@@H]3C)O[C@@H]2C)C[C@H](O)[C@@H]1O [[^3H]-digoxin, digoxin]
P-gp; [3H]-digoxin 38.2 nM, two hours
  vectorial transport (bidirectional): No vectorial transport

## O=C(CCc1ccc(O)cc1)c1c(O)cc(O)cc1O [phloretin]
GLUT-1; 100 µM phloretin
  effect on apparent permeability of 6-NBDG: sensitive to the addition
  effect on apparent permeability of [^3H]-glucose: sensitive to the addition

## COC(=O)c1ccccc1-c1c2ccc(=N)cc-2oc2cc(N)ccc12 [rhodamine 123]
P-gp; rhodamine 123 5 µM, two hours
  vectorial transport (bidirectional): No vectorial transport

## O[C@@H](COc1cccc2ncccc12)CN1CCN([C@@H]2c3ccccc3[C@@H]3[C@H](c4ccccc42)C3(F)F)CC1 [zosuquidar]
P-gp; zosuquidar 0.4 µM, both chambers, two hours
  effect on transport of rhodamine 123 and [3H]-digoxin: neither the transport nor the uptake of the substrates was affected
P-gp; zosuquidar 0.4 µM, uptake probed after the transport study
  effect on uptake of rhodamine 123 and [3H]-digoxin: neither the transport nor the uptake of the substrates was affected
